According to US20230265151A1, “GIP/GLP1 CO-AGONIST COMPOUNDS” (priority 2020, published 2023):
Read-outs that look alike come from different tables or passages of the source. Values belong to the compound of their own block, whether it stands above or below them. *1 amine or outer side, *2 acyl side, *3 side chain or, on linkers, in order; H or OH if unused. Where a SMILES comes first, the peptide text is derived from it. Side-chain parts run from the residue outwards. [ ]: non-standard residue; d: D form. The star is where a group is joined. αMePhe(2-F) = C[C@](N)(Cc1ccccc1F)C(=O)O; γGlu = O=C(O)[C@H](CCC(=O)[*:2])N[*:1]; C14 diacid = O=C(O)CCCCCCCCCCCCC(=O)*; αMeY = C[C@](N)(Cc1ccc(O)cc1)C(=O)O; 4Pal = N[C@@H](Cc1ccncc1)C(=O)O; αMeL = CC(C)C[C@](C)(N)C(=O)O; Orn = NCCC[C@H](N)C(=O)O; AEEA = NCCOCCOCC(=O)O; Aib = CC(C)(N)C(=O)O

Tests used:
Assay type in all cases: cell-based
[1] = target: T1, hGIPR (Homo sapiens, UniProt P48546); assay: Functional cAMP formation (HTRF) in HEK-293 clonal cells expressing hGIPR, 0.1% bovine casein, without or with 1.0% human serum albumin; details: for EC50: geometric mean
T1 construct: expressed in transfected cells
T1 sequence (P48546 22-466): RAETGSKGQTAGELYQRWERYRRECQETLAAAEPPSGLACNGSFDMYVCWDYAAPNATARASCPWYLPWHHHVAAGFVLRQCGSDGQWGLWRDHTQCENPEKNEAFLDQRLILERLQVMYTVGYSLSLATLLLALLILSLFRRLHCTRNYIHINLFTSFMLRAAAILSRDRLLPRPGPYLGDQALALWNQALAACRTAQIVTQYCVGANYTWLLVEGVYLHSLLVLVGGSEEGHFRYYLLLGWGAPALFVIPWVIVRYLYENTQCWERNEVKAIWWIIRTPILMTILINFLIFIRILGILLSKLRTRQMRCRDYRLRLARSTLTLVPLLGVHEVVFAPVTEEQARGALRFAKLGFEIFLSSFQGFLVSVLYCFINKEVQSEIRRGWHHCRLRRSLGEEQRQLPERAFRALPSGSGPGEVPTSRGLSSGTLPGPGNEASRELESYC
Summary of the method: (§1)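 Cells were stimulated with peptide for 30 min at 37° C, then intracellular cAMP was measured by competitive HTRF (665/620 nm ratio) and converted to nM using a cAMP standard curve. Relative EC50 and Emax came from four-parameter logistic fits of percent maximal response against peptide concentration.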

[2] = target: T2, hGCGR (Homo sapiens, UniProt P47871); assay: Functional cAMP formation (HTRF) in HEK-293 clonal cells expressing hGCGR, 0.1% bovine casein, without or with 1.0% human serum albumin
T2 construct: expressed in transfected cells
Summary of the method: as §1

[3] = target: hGLP-1R (Homo sapiens, UniProt P43220); assay: Functional cAMP formation (HTRF) in HEK-293 clonal cells expressing hGLP-1R, 0.1% bovine casein, without or with 1.0% human serum albumin; design: expressed in transfected cells
Summary of the method: as §1

[4] = HEK293, read-out: hGIPR Emax, % ± SEM, percent of maximal response to GIP(1-42)NH2, 37° C., 0.1% bovine casein, arithmetic mean
[5] = hGCGR EC50, nM (SEM, n), cAMP, incubated at 37° C., 0.1% bovine casein (no human serum albumin), geometric mean

T2 sequence (P47871 26-477): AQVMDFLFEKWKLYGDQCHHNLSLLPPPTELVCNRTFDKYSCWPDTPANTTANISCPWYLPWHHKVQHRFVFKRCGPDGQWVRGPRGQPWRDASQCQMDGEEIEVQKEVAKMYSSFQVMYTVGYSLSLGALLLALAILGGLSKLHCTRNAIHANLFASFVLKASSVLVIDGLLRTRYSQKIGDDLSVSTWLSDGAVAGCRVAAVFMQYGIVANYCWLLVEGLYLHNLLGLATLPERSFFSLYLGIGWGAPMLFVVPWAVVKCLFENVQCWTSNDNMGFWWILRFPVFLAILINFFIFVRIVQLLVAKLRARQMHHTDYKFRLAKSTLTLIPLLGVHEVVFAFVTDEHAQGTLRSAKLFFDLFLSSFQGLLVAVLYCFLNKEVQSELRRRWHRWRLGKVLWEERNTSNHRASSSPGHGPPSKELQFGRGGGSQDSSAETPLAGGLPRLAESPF
Chain of hGLP-1R (P43220 24-463): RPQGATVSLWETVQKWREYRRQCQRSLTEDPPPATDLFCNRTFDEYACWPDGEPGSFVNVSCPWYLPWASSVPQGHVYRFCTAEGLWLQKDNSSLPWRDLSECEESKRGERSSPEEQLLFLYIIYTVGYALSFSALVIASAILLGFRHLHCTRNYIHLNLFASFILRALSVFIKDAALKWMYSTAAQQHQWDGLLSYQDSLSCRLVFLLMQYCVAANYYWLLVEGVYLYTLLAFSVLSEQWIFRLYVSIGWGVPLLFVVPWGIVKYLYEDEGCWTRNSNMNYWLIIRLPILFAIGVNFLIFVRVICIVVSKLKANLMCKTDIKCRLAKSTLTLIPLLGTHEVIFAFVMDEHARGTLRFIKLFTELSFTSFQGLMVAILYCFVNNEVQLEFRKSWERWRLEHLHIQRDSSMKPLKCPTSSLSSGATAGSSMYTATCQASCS

EC50 ([1]; 0.1% bovine casein and 1.0% human serum albumin, 37° C., read-out: hGIPR EC50, nM (SEM, n)): 1.25 nM
Emax ([1]; HEK293, 0.1% bovine casein and 1.0% human serum albumin, 37° C., percent of maximal response to GIP(1-42)NH2, read-out: hGIPR Emax, % ± SEM): 96.5 ± 1.04%
Emax ([1]; HEK293, percent of maximal response to GIP(1-42)NH2, 37° C., 0.1% bovine casein, arithmetic mean, read-out: hGIPR Emax, % ± SEM): 96.6 ± 7.55%
EC50 ([1]; cAMP, incubated at 37° C., 0.1% bovine casein (no human serum albumin), read-out: hGIPR EC50, nM (SEM, n)): 0.0309 nM
EC50 ([2]; 0.1% bovine casein and 1.0% human serum albumin, 37° C., geometric mean, read-out: hGCGR EC50, nM (SEM, n)): > 9950 nM
EC50 ([2]; cAMP, incubated at 37° C., 0.1% bovine casein (no human serum albumin), geometric mean, read-out: hGCGR EC50, nM (SEM, n)): > 9950 nM
EC50 ([3]; 0.1% bovine casein and 1.0% human serum albumin, 37° C., geometric mean, read-out: hGLP-1R EC50, nM (SEM, n)): 34.6 nM
Emax ([3]; HEK293, percent of maximal response to GLP-1(7-36)NH2, 37° C., 0.1% bovine casein, arithmetic mean, read-out: hGLP-1R Emax, % ± SEM): 99 ± 5.16%
EC50 ([3]; cAMP, incubated at 37° C., 0.1% bovine casein (no human serum albumin), geometric mean, read-out: hGLP-1R EC50, nM (SEM, n)): 0.912 nM
SMILES: CC[C@H](C)[C@H](NC(=O)[C@H](CC(C)C)NC(=O)[C@](C)(Cc1ccc(O)cc1)NC(=O)[C@@H](CCC(=O)O)NC(=O)[C@@H](NC(=O)[C@H](Cc1ccccc1)NC(=O)[C@H](CCC(=O)O)NC(=O)C(C)(C)NC(=O)[C@H](CCC(N)=O)NC(=O)[C@H](C)NC(=O)[C@H](CCCCNC(=O)COCCOCCNC(=O)COCCOCCNC(=O)CC[C@H](NC(=O)CCCCCCCCCCCCC(=O)O)C(=O)O)NC(=O)[C@H](CCCN)NC(=O)[C@H](CC(=O)O)NC(=O)[C@H](CC(C)C)NC(=O)[C@](C)(CC(C)C)NC(=O)[C@@H](NC(=O)[C@H](CO)NC(=O)[C@H](Cc1ccncc1)NC(=O)[C@H](CC(=O)O)NC(=O)[C@H](CO)NC(=O)[C@@H](NC(=O)[C@](C)(Cc1ccccc1F)NC(=O)[C@@H](NC(=O)CNC(=O)[C@H](CCC(=O)O)NC(=O)C(C)(C)NC(=O)[C@@H](N)Cc1ccc(O)cc1)[C@@H](C)O)[C@@H](C)O)[C@@H](C)CC)[C@@H](C)CC)C(=O)N[C@@H](CCC(=O)O)C(=O)NCC(=O)NCC(=O)N[C@@H](CCCCNC(=O)COCCOCCNC(=O)COCCOCCNC(=O)CC[C@H](NC(=O)CCCCCCCCCCCCC(=O)O)C(=O)O)C(=O)N[C@@H](CO)C(=O)N[C@@H](CO)C(=O)NCC(=O)N[C@@H](CCCN)C(=O)N1CCC[C@H]1C(=O)N1CCC[C@H]1C(=O)N1CCC[C@H]1C(=O)N[C@@H](CCCN)C(N)=O [Example 155] (H-Y[Aib]EGT[αMePhe(2-F)]TSD[4Pal]SI[αMeL]LD[Orn]K([AEEA-AEEA-γGlu-C14 diacid])AQ[Aib]EFI[dE][αMeY]LIEGGK([AEEA-AEEA-γGlu-C14 diacid])SSG[Orn]PPP[Orn]-NH2; N-terminus assumed)

SMILES: CC[C@H](C)[C@H](NC(=O)[C@H](CC(C)C)NC(=O)[C@](C)(Cc1ccc(O)cc1)NC(=O)[C@@H](CCC(=O)O)NC(=O)[C@@H](NC(=O)[C@H](Cc1ccccc1)NC(=O)[C@H](CCC(=O)O)NC(=O)C(C)(C)NC(=O)[C@H](CCC(N)=O)NC(=O)[C@H](C)NC(=O)[C@H](CCCCNC(=O)COCCOCCNC(=O)COCCOCCNC(=O)CCCCCCCCCCCCC(=O)O)NC(=O)[C@H](CCCN)NC(=O)[C@H](CC(=O)O)NC(=O)[C@H](CC(C)C)NC(=O)[C@](C)(CC(C)C)NC(=O)[C@@H](NC(=O)C(C)(C)NC(=O)[C@H](Cc1ccc(O)cc1)NC(=O)[C@H](CC(=O)O)NC(=O)[C@H](CO)NC(=O)[C@@H](NC(=O)[C@](C)(Cc1ccccc1F)NC(=O)[C@@H](NC(=O)CNC(=O)[C@H](CCC(=O)O)NC(=O)C(C)(C)NC(=O)[C@@H](N)Cc1ccc(O)cc1)[C@@H](C)O)[C@@H](C)O)[C@@H](C)CC)[C@@H](C)CC)C(=O)N[C@@H](CCCCNC(=O)COCCOCCNC(=O)COCCOCCNC(=O)CCCCCCCCCCCCC(=O)O)C(=O)NCC(=O)NCC(=O)N1CCC[C@H]1C(=O)N[C@@H](CO)C(=O)N[C@@H](CO)C(=O)NCC(=O)N[C@@H](C)C(=O)N1CCC[C@H]1C(=O)N1CCC[C@H]1C(=O)N1CCC[C@H]1C(=O)N[C@@H](CO)C(N)=O [Example 388]
Emax ([1]; HEK293, cAMP, 37° C., 0.1% bovine casein and 1.0% human serum albumin, percent of maximal response to GIP(1-42)NH2, read-out: hGIPR Emax, % ± SEM): 82.1%
Emax ([1]; HEK293, cAMP, 37° C., 0.1% bovine casein, percent of maximal response to GIP(1-42)NH2, arithmetic mean, read-out: hGIPR Emax, % ± SEM): 98.3%
EC50 ([1]; cAMP, 37° C., 0.1% bovine casein (no human serum albumin), read-out: hGIPR EC50, nM (SEM, n)): 0.0103 nM
EC50 ([2]; cAMP, 37° C., 0.1% bovine casein (no human serum albumin), geometric mean, read-out: hGCGR EC50, nM (SEM, n)): > 9950 nM
EC50 ([2]; cAMP, 37° C., 0.1% bovine casein and 1.0% human serum albumin, geometric mean (SEM, n), read-out: hGCGR EC50, nM (SEM, n)): > 9950 nM
Emax ([3]; HEK293, cAMP, 37° C., 0.1% bovine casein, percent of maximal response to GLP-1(7-36)NH2, arithmetic mean, read-out: hGLP-1R Emax, % ± SEM): 95.4%
EC50 ([3]; cAMP, 37° C., 0.1% bovine casein (no human serum albumin), geometric mean, read-out: hGLP-1R EC50, nM (SEM, n)): 0.292 nM
EC50 ([3]; cAMP, 37° C., 0.1% bovine casein and 1.0% human serum albumin, geometric mean (SEM, n), read-out: hGLP-1R EC50, nM (SEM, n)): 6.31 nM

SMILES: CC[C@H](C)[C@H](NC(=O)[C@H](CC(C)C)NC(=O)[C@](C)(Cc1ccc(O)cc1)NC(=O)[C@@H](CCC(=O)O)NC(=O)[C@@H](NC(=O)[C@H](Cc1ccccc1)NC(=O)[C@H](CCC(=O)O)NC(=O)C(C)(C)NC(=O)[C@H](CCC(N)=O)NC(=O)[C@H](C)NC(=O)[C@H](CCCCNC(=O)COCCOCCNC(=O)COCCOCCNC(=O)CC[C@H](NC(=O)CCCCCCCOc1ccc(C(=O)O)cc1)C(=O)O)NC(=O)[C@H](CCCN)NC(=O)[C@H](CC(=O)O)NC(=O)[C@H](CC(C)C)NC(=O)[C@](C)(CC(C)C)NC(=O)[C@@H](NC(=O)[C@H](CO)NC(=O)[C@H](Cc1ccncc1)NC(=O)[C@H](CC(=O)O)NC(=O)[C@H](CO)NC(=O)[C@@H](NC(=O)[C@](C)(Cc1ccccc1F)NC(=O)[C@@H](NC(=O)CNC(=O)[C@H](CCC(=O)O)NC(=O)C(C)(C)NC(=O)[C@@H](N)Cc1ccc(O)cc1)[C@@H](C)O)[C@@H](C)O)[C@@H](C)CC)[C@@H](C)CC)C(=O)N[C@@H](CCC(=O)O)C(=O)NCC(=O)NCC(=O)N[C@@H](CCCCNC(=O)COCCOCCNC(=O)COCCOCCNC(=O)CC[C@H](NC(=O)CCCCCCCOc1ccc(C(=O)O)cc1)C(=O)O)C(=O)N[C@@H](CO)C(=O)N[C@@H](CO)C(=O)NCC(=O)N[C@@H](C)C(=O)N1CCC[C@H]1C(=O)N1CCC[C@H]1C(=O)N1CCC[C@H]1C(=O)N[C@@H](CO)C(N)=O [Example 126]
Emax [1, 4]: 91.8%
EC50 [2, 5]: > 9950 nM
EC50 ([3]; hGLP-1R EC50, nM (SEM, n), cAMP, incubated at 37° C., 0.1% bovine casein (no human serum albumin), geometric mean): 1.69 nM

SMILES: CC[C@H](C)[C@H](NC(=O)[C@H](CCCN)NC(=O)[C@H](CC(=O)O)NC(=O)[C@H](CC(C)C)NC(=O)[C@](C)(CC(C)C)NC(=O)[C@@H](NC(=O)[C@H](CO)NC(=O)[C@H](Cc1ccncc1)NC(=O)[C@H](CC(=O)O)NC(=O)[C@H](CO)NC(=O)[C@@H](NC(=O)[C@](C)(Cc1ccccc1F)NC(=O)[C@@H](NC(=O)CNC(=O)[C@H](CCC(=O)O)NC(=O)C(C)(C)NC(=O)[C@@H](N)Cc1ccc(O)cc1)[C@@H](C)O)[C@@H](C)O)[C@@H](C)CC)C(=O)N[C@@H](C)C(=O)N[C@@H](CCC(N)=O)C(=O)NC(C)(C)C(=O)N[C@@H](CCC(=O)O)C(=O)N[C@@H](Cc1ccccc1)C(=O)N[C@H](C(=O)N[C@@H](CCCCNC(=O)COCCOCCNC(=O)COCCOCCNC(=O)CCCCCCCCCCCCC(=O)O)C(=O)N[C@@](C)(Cc1ccc(O)cc1)C(=O)N[C@@H](CC(C)C)C(=O)N[C@H](C(=O)N[C@@H](CCC(=O)O)C(=O)NCC(=O)NCC(=O)N1CCC[C@H]1C(=O)N[C@@H](CO)C(=O)N[C@@H](CO)C(=O)NCC(=O)N[C@@H](C)C(=O)N1CCC[C@H]1C(=O)N1CCC[C@H]1C(=O)N1CCC[C@H]1C(=O)N[C@@H](CO)C(=O)N[C@@H](CCCCNC(=O)COCCOCCNC(=O)COCCOCCNC(=O)CCCCCCCCCCCCC(=O)O)C(N)=O)[C@@H](C)CC)[C@@H](C)CC [Example 194]
Emax ([1]; HEK293, read-out: hGIPR Emax, % ± SEM, 0.1% bovine casein and 1.0% human serum albumin, 37° C., percent of maximal response to GIP(1-42)NH2): 80.7 ± 7.81%
Emax [1, 4]: 93.1 ± 1.05%
EC50 ([1]; hGIPR EC50, nM (SEM, n), 0.1% bovine casein and 1.0% human serum albumin, 37° C.): 1.24 nM
EC50 ([2]; hGCGR EC50, nM (SEM, n), 0.1% bovine casein and 1.0% human serum albumin, 37° C., geometric mean): > 9950 nM
EC50 [2, 5]: > 9950 nM
Emax ([3]; HEK293, read-out: hGLP-1R Emax, % ± SEM, 0.1% bovine casein and 1.0% human serum albumin, 37° C., percent of maximal response to GLP-1(7-36)NH2): 109 ± 10.5%
